Experimental data reported in the supplement of paper PMC4862054.

Legend:
BT-549 = conditions: 72 h
In short: (§1)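 EC50 was fitted from dose-response curves and censored at the highest concentration tested. To build those curves, breast cancer cell lines (20 µl suspension) were seeded into 384-well plates containing compound at 5 concentrations in 10-fold steps over a compound-specific 10,000-fold range and incubated for 72 h. Readouts were CellTox Green fluorescence (485/520 nm) for cell death and then CellTiter-Glo luminescence for viability, with each plate normalised to 0.1 % DMSO and a positive kill control.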

CAL-148 [1] = conditions: 72 h
In short: as §1

CAL-85-1 [2] = conditions: 72 h
In short: as §1

HDQ-P1 [3] = conditions: 72 h
In short: as §1

MCF-10A [4] = conditions: 72 h
In short: as §1

MDA-MB-453 [5] = conditions: 72 h
In short: as §1

SK-BR-3 [6] = conditions: 72 h
In short: as §1

CAL-85-1 [7] = conditions: 72 h; remark: listed apart in the source
In short: (§2)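 Each 384-well plate was pre-loaded with compound dissolved in 5 µl medium, received breast cancer cells in 20 µl suspension, and was incubated 72 h. A 2.5 µl addition of CellTiter-Blue for 2 h at 37 °C was followed by a fluorescence read at 560/590 nm. Data were normalised per plate to vehicle and a positive kill control and checked by Z'-factor. EC50 was fitted from the percent-inhibition dose-response curve, censored at the highest concentration, excluding rows with a drug sensitivity score of zero.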

HDQ-P1 [8] = conditions: 72 h; remark: listed apart in the source
In short: as §2

MDA-MB-453 [9] = conditions: 72 h; remark: listed apart in the source
In short: as §2

BT-474 [10] = conditions: 72 h
In short: as §2

Hs578T [11] = conditions: 72 h
In short: as §2

MDA-MB-231 [12] = conditions: 72 h
In short: as §2

MDA-MB-468 [13] = conditions: 72 h
In short: as §2

MFM-223 [14] = conditions: 72 h
In short: as §2

CAL-85-1 [15] = conditions: 72 h; remark: listed apart in the source
Description: (§3)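 Drug sensitivity and resistance testing (DSRT) of breast cancer cell lines in 384-well plates, 5 concentrations in 10-fold dilutions over a compound-specific 10,000-fold range. After 72 h, cytotoxicity was read by CellTox Green fluorescence and viability by CellTiter-Glo luminescence (multiplexed), normalised to DMSO and benzethonium chloride controls. EC50 is the inflection point of the fitted dose-response curve (bottom asymptote free, so it can be relative for partial curves) and is censored at the highest tested concentration. Rows with DSS 0 (no meaningful response) were excluded.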

CAL-51 [16] = conditions: 72 h
In short: as §1

DU-4475 [17] = conditions: 72 h
In short: as §1

HCC1143 [18] = conditions: 72 h
In short: as §1

HCC1937 = conditions: 72 h
In short: as §1

Hs578T [19] = conditions: 72 h; remark: listed apart in the source
In short: as §1

MDA-MB-436 = conditions: 72 h
In short: as §1

MFM-223 [20] = conditions: 72 h; remark: listed apart in the source
In short: as §1

DU-4475 [21] = conditions: 72 h; remark: listed apart in the source
In short: as §2

HCC1143 [22] = conditions: 72 h; remark: listed apart in the source
In short: as §2

Hs578T [23] = conditions: 72 h; remark: listed apart in the source
Description: as §3

HCC1143 [24] = assay: normalised response (% of control), CellTiter-Glo; higher = more viable cells (100 = DMSO, 0 = benzethonium chloride kill control); conditions: incubation time: 72 h
In short: (§4)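 Values are normalised signals, each belonging to one concentration of the series. Breast cancer cells (20 µl suspension) were seeded into 384-well plates with compound at 5 concentrations in 10-fold steps over a compound-specific 10,000-fold range and incubated 72 h. Readouts were CellTox Green fluorescence (485/520 nm), then CellTiter-Glo luminescence after 10 min at room temperature, with each plate set to 0.1 % DMSO as 100 and a positive kill control as 0.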

HCC1599 [25] = assay: as above; conditions: incubation time: 72 h
In short: as §4

HDQ-P1 [26] = assay: as above; conditions: incubation time: 72 h
In short: as §4

MCF-10A [27] = assay: as above; conditions: incubation time: 72 h
In short: as §4

MDA-MB-231 [28] = assay: as above; conditions: incubation time: 72 h
In short: as §4

MDA-MB-468 [29] = assay: as above; conditions: incubation time: 72 h
In short: as §4

SK-BR-3 [30] = assay: as above; conditions: incubation time: 72 h
In short: as §4

BT-474 [31] = conditions: 72 h; remark: listed apart in the source
In short: as §1

HCC1599 [32] = conditions: 72 h
In short: as §2

CAL-148 [33] = conditions: 72 h; remark: listed apart in the source
Description: as §3

CAL-51 [34] = conditions: 72 h; remark: listed apart in the source
Description: as §3

| Structure (SMILES) | EC50, CellTiter-Blue viability (CAL-85-1 [7]) | EC50, CellTiter-Blue viability (MDA-MB-453 [9]) | EC50, CellTiter-Blue viability (Hs578T [11]) | EC50, CellTiter-Blue viability (MDA-MB-468 [13]) | EC50, CellTiter-Glo (CAL-51 [16]) | normalised response (HCC1143 [24]) | normalised response (HCC1599 [25]) | normalised response (HDQ-P1 [26]) | normalised response (MCF-10A [27]) | normalised response (MDA-MB-231 [28]) | normalised response (MDA-MB-468 [29]) | normalised response (SK-BR-3 [30]) | also measured |
| --- | --- | --- | --- | --- | --- | --- | --- | --- | --- | --- | --- | --- | --- |
| CN(C)C/C=C/C(=O)Nc1cc2c(Nc3ccc(F)c(Cl)c3)ncnc2cc1O[C@H]1CCOC1 [Afatinib] | 147 nM | 45.7 nM | 4260 nM | 1160 nM |  |  |  |  |  |  |  |  | EC50, CellTiter-Glo (BT-549): > 1000 nM; EC50, CellTiter-Glo (CAL-148 [1]): 24.1 nM; EC50, CellTiter-Glo (CAL-85-1 [2]): 35.2 nM; EC50, CellTiter-Glo (HDQ-P1 [3]): 9.48 nM; EC50, CellTiter-Glo (MCF-10A [4]): 6.58 nM; EC50, CellTiter-Glo (MDA-MB-453 [5]): 54.7 nM; EC50, CellTiter-Glo (SK-BR-3 [6]): 10.7 nM; EC50, CellTiter-Blue viability (HDQ-P1 [8]): 398 nM; EC50, CellTiter-Blue viability (BT-474 [10]): 20.9 nM; EC50, CellTiter-Blue viability (MDA-MB-231 [12]): 2010 nM; EC50, CellTiter-Blue viability (MFM-223 [14]): 3740 nM; EC50, CellTox Green (CAL-85-1 [15]): 19.7 nM |
| CO[C@H]1C[C@@H]2CC[C@@H](C)[C@@](O)(O2)C(=O)C(=O)N2CCCC[C@H]2C(=O)O[C@H]([C@H](C)C[C@@H]2CC[C@@H](OC(=O)C(C)(CO)CO)[C@H](OC)C2)CC(=O)[C@H](C)/C=C(\C)[C@@H](O)[C@@H](OC)C(=O)[C@H](C)C[C@H](C)/C=C/C=C/C=C/1C [Temsirolimus] | 0.11 nM | 0.37 nM | 1 nM | 0.39 nM | 0.65 nM |  |  |  |  |  |  |  | EC50, CellTiter-Glo (BT-549): 0.32 nM; EC50, CellTiter-Glo (CAL-148 [1]): 1.28 nM; EC50, CellTiter-Glo (CAL-85-1 [2]): 0.67 nM; EC50, CellTiter-Glo (DU-4475 [17]): 1.42 nM; EC50, CellTiter-Glo (HCC1143 [18]): 0.8 nM; EC50, CellTiter-Glo (HCC1937): 0.46 nM; EC50, CellTiter-Glo (HDQ-P1 [3]): 17.9 nM; EC50, CellTiter-Glo (Hs578T [19]): 0.15 nM; EC50, CellTiter-Glo (MDA-MB-436): 6.71 nM; EC50, CellTiter-Glo (MDA-MB-453 [5]): 1.5 nM; EC50, CellTiter-Glo (MFM-223 [20]): 0.77 nM; EC50, CellTiter-Glo (SK-BR-3 [6]): 0.46 nM; EC50, CellTiter-Blue viability (DU-4475 [21]): 2.16 nM; EC50, CellTiter-Blue viability (HDQ-P1 [8]): 1.34 nM; EC50, CellTiter-Blue viability (BT-474 [10]): 0.67 nM; EC50, CellTiter-Blue viability (HCC1143 [22]): 1.62 nM; EC50, CellTiter-Blue viability (MFM-223 [14]): 0.18 nM; EC50, CellTox Green (Hs578T [23]): 1.28 nM |
| C=CC[C@@H]1/C=C(\C)C[C@H](C)C[C@H](OC)[C@H]2O[C@@](O)(C(=O)C(=O)N3CCCC[C@H]3C(=O)O[C@H](/C(C)=C/[C@@H]3CC[C@@H](O)[C@H](OC)C3)[C@H](C)[C@@H](O)CC1=O)[C@H](C)C[C@@H]2OC [Tacrolimus] (1000 nM) |  |  |  |  |  | 98.4% | 121% | 105% | 102% | 106% | 105% | 88.5% |  |
| S=c1[nH]cnc2nc[nH]c12 [Mercaptopurine] (1000 nM) |  |  |  |  |  | 95.3% | 80.5% | 47.7% | 94.2% | 66.6% | 91.8% | 95.2% |  |
| Nc1ccn([C@@H]2O[C@H](CO)[C@@H](O)[C@@H]2O)c(=O)n1 [Cytarabine] | 1190 nM | 396 nM | 17.3 nM | 483 nM | 544 nM |  |  |  |  |  |  |  | EC50, CellTiter-Glo (BT-474 [31]): > 10000 nM; EC50, CellTiter-Glo (BT-549): 305 nM; EC50, CellTiter-Glo (CAL-148 [1]): 200 nM; EC50, CellTiter-Glo (DU-4475 [17]): 339 nM; EC50, CellTiter-Glo (HCC1143 [18]): 1270 nM; EC50, CellTiter-Glo (HDQ-P1 [3]): 2890 nM; EC50, CellTiter-Glo (Hs578T [19]): 462 nM; EC50, CellTiter-Glo (MDA-MB-436): 364 nM; EC50, CellTiter-Glo (SK-BR-3 [6]): 156 nM; EC50, CellTiter-Blue viability (DU-4475 [21]): 450 nM; EC50, CellTiter-Blue viability (HCC1143 [22]): 213 nM; EC50, CellTiter-Blue viability (HCC1599 [32]): 556 nM; EC50, CellTiter-Blue viability (MDA-MB-231 [12]): 183 nM; EC50, CellTox Green (CAL-148 [33]): 61.6 nM; EC50, CellTox Green (CAL-51 [34]): 315 nM |
| Nc1nc(Cl)nc2c1ncn2[C@H]1C[C@H](O)[C@@H](CO)O1 [Cladribine] (100 nM) |  |  |  |  |  | 100% | 112% | 97.5% | 107% | 93.3% | 93.8% | 111% |  |
| Cc1ccc(F)c(NC(=O)Nc2ccc(-c3cccc4[nH]nc(N)c34)cc2)c1 [Linifanib] |  |  |  |  | 411 nM |  |  |  |  |  |  |  |  |
| COc1cccc2cc(-c3nc([C@H]4CC[C@H](C(=O)O)CC4)n4ncnc(N)c34)[nH]c12 [OSI-027] (1000 nM) |  |  |  |  |  | 90.8% | 118% | 66.1% | 87% | 85.5% | 84.2% | 48.2% |  |
| C[C@]1(c2nc3c(C(N)=O)cccc3[nH]2)CCCN1 [Veliparib] |  |  |  |  | 50 nM |  |  |  |  |  |  |  | EC50, CellTox Green (CAL-85-1 [15]): > 10000 nM |
| CC[C@]1(O)C[C@@H]2CN(CCc3c([nH]c4ccccc34)[C@@](C(=O)OC)(c3cc4c(cc3OC)N(C)[C@H]3[C@@](O)(C(=O)OC)[C@H](OC(C)=O)[C@]5(CC)C=CCN6CC[C@]43[C@@H]65)C2)C1 [Vinblastine] (100 nM) |  |  |  |  |  | 56.6% | 26.6% | 71.9% | 72.4% | 40.1% | 34.7% | 14.2% |  |
| Nc1ccn([C@@H]2O[C@H](CO)[C@@H](O)[C@@H]2O)c(=O)n1 [Cytarabine] (1000 nM) |  |  |  |  |  | 80.6% | 93.4% | 92% | 104% | 86.8% | 74.3% | 46.7% |  |
| COc1cc(Nc2ncc3c(n2)-c2ccc(Cl)cc2C(c2c(F)cccc2OC)=NC3)ccc1C(=O)O [MLN8237] | 29.6 nM | 11.1 nM | 41.8 nM | 76.2 nM |  |  |  |  |  |  |  |  | EC50, CellTiter-Blue viability (DU-4475 [21]): 57.5 nM; EC50, CellTiter-Blue viability (HDQ-P1 [8]): 51 nM; EC50, CellTiter-Blue viability (BT-474 [10]): 1160 nM; EC50, CellTiter-Blue viability (HCC1143 [22]): 68.7 nM; EC50, CellTiter-Blue viability (HCC1599 [32]): 2050 nM; EC50, CellTiter-Blue viability (MDA-MB-231 [12]): 502 nM; EC50, CellTiter-Blue viability (MFM-223 [14]): 388 nM |
